Values of other authors, collected in paper PMC5224880, “Discovery and Molecular Basis of a Diverse Set of Polycomb Repressive Complex 2 Inhibitors Recognition by EED” (PLoS ONE, 2017).
“Also recorded” adds a separate entry of the source.

How the values were obtained:
[1] = tested on: tumor growth in the xenograft mouse model; design: method as in PMID 28135235; conditions: cited from earlier work
[2] = tested on: PRC2; design: method as in PMID 28135235; conditions: recombinant NCP as substrate; read-out: half-maximum stimulation (Kact) of PRC2 activity; cited from earlier work

| Compound | antitumor activity [1] | EC50 [2] [nM] |
| --- | --- | --- |
| CS(=O)(=O)c1ccc(-c2cnc(NCc3ccco3)n3cnnc23)cc1 [EED226] | strong antitumor activity; also recorded: completely regressed tumor growth | – |
| H3K27me3 stimulatory peptide: activation peptide H3K27me3 (21–44) used to stimulate PRC2 activity for the nucleosome substrate | – | 1000 |
